Source: US20230226227A1, “PROSTATE SPECIFIC MEMBRANE ANTIGEN (PSMA) LIGANDS AND USES THEREOF” (ADVANCED ACCELERATOR APPLICATIONS (ITALY) SRL, priority 2019, published 2023)

Legend:
[1] = test system: PC-3 PSMA positive and PSMA negative tumor xenografts; assay: In vivo distribution in tumor models (PSMA positive PIP and negative Flu xenografts); parameters: species or system athymic nude male mice; details: for Salivary glands uptake: 0.5 h post injection; for Kidney uptake / Tumor uptake / Tumor-to-kidney ratio: 1 h post injection
Description: Athymic nude male mice bearing the PC-3 PSMA positive and PSMA negative tumor xenografts were injected with approximately 4.5 MBq of ^68Ga-PSMA-R2, and subsequently assessed for biodistribution and imaging studies. At 4 time points (30 min, 1 h, 2 h and 4 h) post injection (p.i.), tumor and organ uptake was determined using a gamma-counter. To assess receptor-specificity additional groups of animals were coinjected with an excess of unlabeled PSMA-R2 (40 nmol).
The same study was performed with ^68Ga-PSMA-cpd 2, a comparative compound of the following formula: […]

[2] = Plasma protein binding by ultrafiltration, human plasma; type: in vitro ADME; details: human plasma
Description: (§1) Plasma protein binding of PSMA-R2 and ^175Lu-PSMA-R2 has been determined by ultrafiltration method, after incubation of the compounds in human, mouse, rat and minipig plasma at two different concentrations: 1 and 5 µg/mL.

[3] = Plasma protein binding by ultrafiltration, mouse plasma; type: in vitro ADME
Description: as §1

[4] = Plasma protein binding by ultrafiltration, rat plasma; type: in vitro ADME; details: read-out: fu (%) fraction unbound
Description: as §1

[5] = Plasma protein binding by ultrafiltration, minipig plasma; type: in vitro ADME; details: read-out: fu (%) fraction unbound
Description: as §1

[6] = In vitro stability in plasma (human); type: in vitro ADME; details: 37° C., after 2 hours
Description: Stability of PSMA-R2 ligand was assessed in vitro after incubation with plasma from four different species (mouse, rat, mini-pig and human). PSMA-R2 was incubated at 37° C. in the different matrices, at a final concentration of 10 µg/mL, for 30, 60 and 120 minutes. The samples were analyzed by LC-MS/MS method.

[7] = test system: PC3-PIP (PSMA positive) tumor; assay: In vivo efficacy in PC3-PIP PSMA positive model; parameters: species or system mice; details: single injection of 111 MBq; p<0.001
Description: An efficacy study was conducted in a prostate cancer model using Lu-labelled PSMA-R2).
Mice bearing PC3-PIP (PSMA positive) tumor were injected once with 111 MBq of ^177Lu-PSMA-R2, ^177Lu-PSMA-617, included as reference compound, or with saline (control).
Tumor volume is expressed either as an absolute value (mm^3) or relatively to the volume measured at the time of the first injection.

[8] = In vivo distribution in healthy CD-1 mice; parameters: species or system CD-1 healthy mice
Description: In vivo distribution studies were performed in CD-1 healthy mice using Ga-labelled PSMA-R2, which was administered intravenously at a dose of 120-150 µCi (4.44 - 5.55 MBq). At specific time points after intravenous injection, animals (3 or 4/group) were sacrificed, organs collected, weighted and evaluated in a gamma counter.

[9] = 1 µg/mL, read-out: fu (%) fraction unbound
[10] = 5 µg/mL, read-out: fu (%) fraction unbound
[11] = 1 and 5 µg/mL, read-out: Unbound fraction, range over labelled and unlabelled form

## O=C(O)CC[C@H](NC(=O)N[C@@H](CCCCN(Cc1ccc(Br)cc1)C(=O)CCCCNC(=O)CN1CCN(CC(=O)O)CCN(CC(=O)O)CCN(CC(=O)O)CC1)C(=O)O)C(=O)O.[68Ga] [^68Ga-PSMA-cpd2, reference compound]
[1]
  Salivary glands uptake: 0.95% (0.5 h)
  Kidney uptake: 13% (1 h)
  Tumor uptake: 36% (1 h)
  Tumor-to-kidney ratio: 3 (1 h)

## O=C(O)CCC(NC(=O)NC(CCCCN(Cc1ccc(Br)cc1)C(=O)CCCCCNC(=O)CN1CCN(CC(=O)O)CCN(CC(=O)O)CCN(CC(=O)O)CC1)C(=O)O)C(=O)O (stereo not shown) [PSMA-R2]
[2]; [9]
  fraction unbound at 1 µg/mL: 0.299 ± 0.046
[2]; [10]
  fraction unbound at 5 µg/mL: 0.23 ± 0.005
[2]; [11]
  fraction unbound: 0.25 to 0.45
[3]; [9]
  fraction unbound at 1 µg/mL: 0.862 ± 0.111
[3]; [10]
  fraction unbound at 5 µg/mL: 0.727 ± 0.015
[3]; [11]
  fraction unbound: 0.7 to 0.86
[4]; 1 µg/mL
  fraction unbound at 1 µg/mL: 0.256 ± 0.018
[4]; 5 µg/mL
  fraction unbound at 5 µg/mL: 0.226 ± 0.011
[5]; 1 µg/mL
  fraction unbound at 1 µg/mL: 0.407 ± 0.043
[5]; 5 µg/mL
  fraction unbound at 5 µg/mL: 0.353 ± 0.085
[6]
  recovery at 2 h, 10 µg/mL: 85%

## O=C([O-])CN1CCN(CC(=O)[O-])CCN(CC(=O)NCC2CCC(C(=O)N[C@@H](Cc3ccc4ccccc4c3)C(=O)NCCCC[C@H](NC(=O)N[C@@H](CCC(=O)O)C(=O)O)C(=O)O)CC2)CCN(CC(=O)[O-])CC1.[177Lu+3] (stereo partly shown) [^177Lu-PSMA-617, reference compound]
[7]
  Absolute tumor volume in comparison to control group: significantly reduced
  Relative tumor volume in comparison to control group: significantly reduced

## O=C([O-])CN1CCN(CC(=O)[O-])CCN(CC(=O)NCCCCCC(=O)N(CCCC[C@H](NC(=O)N[C@@H](CCC(=O)O)C(=O)O)C(=O)O)Cc2ccc(Br)cc2)CCN(CC(=O)[O-])CC1.[177Lu+3] [^177Lu-PSMA-R2]
[7]
  Absolute tumor volume in comparison to control group: significantly reduced
  Relative tumor volume in comparison to control group: significantly reduced

## O=C(O)CCC(NC(=O)NC(CCCCN(Cc1ccc(Br)cc1)C(=O)CCCCCNC(=O)CN1CCN(CC(=O)O)CCN(CC(=O)O)CCN(CC(=O)O)CC1)C(=O)O)C(=O)O.[68Ga] (stereo not shown) [^68Ga-PSMA-R2]
[1]
  Salivary glands uptake: 0.81% (0.5 h)
  Kidney uptake: 6% (1 h)
  Tumor uptake: 29% (1 h)
  Tumor-to-kidney ratio: 5 (1 h)
[8]; 30 minutes after intravenous injection
  Liver uptake: 0.74%
[8]; 4 hours after intravenous injection
  Liver uptake: 0.21%
[8]; all time-points
  Radiotracer uptake in remaining organs (intestine, pancreas, muscle, bone): Low
[8]; earliest time-point (30 min), decreased rapidly later
  Radiotracer uptake in blood, adrenals, lungs, thyroid: slightly high
[8]; intravenous
  Excretion route (uptake in kidneys and bladder): excreted through the renal system
